IC50 data for three compounds are collected here from ChEMBL document CHEMBL3638965, “Chemical compounds 542” (2015).

One may read the IC50 as the point on the concentration scale where inhibition reaches its midpoint.

This assay addresses DNA gyrase (Escherichia coli, UniProt P0AES4+P0AES6). The experiment in a line: Fluorescence Polarisation Assay: In a black, 384-well polystyrene assay plate, 30 microliters/well of 5 nM Escherichia coli DNA gyrase A/B tetramer and 130 micrograms/ml of topologically relaxed plasmid containing the triplex-forming sequence […] in an assay buffer consisting of 35 mM Tris-HCl (pH 7.5), 24 mM KCl, 4 mM MgCl2, 2 mM dithiothreitol, 1.8 mM spermidine, 5% (v/v) glycerol, 200 nM bovine serum albumin, 0.8% dimethylsulfoxide, and 0.3 mM ATP may be incubated at ambient temperature for (typically 30 minutes) in the absence or presence of 5-10 different concentrations of test compound. The supercoiling reactions may be quenched by the addition of 10 microliters/well of 40 nM oligodeoxynucleotide probe in 3x triplex-forming buffer consisting of 150 mM NaCl, and 150 mM sodium acetate at pH 3.5. The oligodeoxynucleotide probe may be 5x-BODIPY-FL-labeled […]. After 60 minutes, the fluorescence anisotropy of the BODIPY-FL may be measured in a Tecan Ultra plate reader, using 485 nM. Type of assay: protein-complex assay.

Turning to `C[C@@H]1CN2c3c(cc4c(Cl)noc4c3F)CC3(C(=O)NC(=O)NC3=O)[C@H]2[C@H](C)O1`, the IC50 was 200 nM.
For `Cc1noc2c(Cl)c3c(nc12)CC1(C(=O)NC(=O)NC1=O)[C@H]1[C@H](C)O[C@H](C)CN31` (relative stereo) the value was 1800 nM; for `C[C@@H]1CN2c3c(cc4c(C(N)=O)noc4c3F)CC3(C(=O)NC(=O)NC3=O)[C@H]2[C@H](C)O1` (relative stereo), 1700 nM.
